{
  "source": "patent US9234025B2",
  "about": "“Extracellular allosteric inhibitor binding domain from a tyrosine kinase receptor” (SANOFI, priority 2009, dated 2016)",
  "key": {"FGF2": {"target": "FGF2 (Homo sapiens, UniProt P09038)", "sequence (P09038 142-288)": "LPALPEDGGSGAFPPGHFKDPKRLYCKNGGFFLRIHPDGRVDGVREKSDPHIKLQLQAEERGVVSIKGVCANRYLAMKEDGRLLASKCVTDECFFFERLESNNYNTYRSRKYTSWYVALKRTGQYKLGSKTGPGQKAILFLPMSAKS", "experiment": "ITC or STD-NMR, FGF2", "format": "binding", "set-up": "FGF2 (amino acids 9-155); made in house", "experimental": "(§1) The extracellular domain (ECD; amino acids: 39-358) of the human FGFR1 gene (P11362) was PCR amplified and cloned into E. coli vector pETTEV (with a N-terminal His-tag followed by a TEV protease cleavage site), using NdeI and BamHI restriction sites. For protein production, the resulting plasmid (pET FGFR1 D1D2D3) was transformed into E. coli BL21(DE3) (Novagene). Cells were grown at 37° C. until the OD600 reached 0.6 and recombinant protein production was induced by adding 1 mM IPTG (isopropyl-b-D-thiogalactopyranoside). After 4 hours induction, cells were harvested and stored at −80° C. until usage. The cell pellet (1 L culture) was thawed and resuspended in 50 ml buffer 1 (20 mM Tris/HCl, pH 7.5, 200 mM NaCl) containing lysozyme (2 mg), and 40 U benzonase (Merck). […] Complex formation was analyzed by size exclusion chromatography and subsequent analysis on SDS-PAGE.\n(§2) All STD- and 1D-NMR experiments were carried out on a BRUKER three-channel DRX600 and on a BRUKER four-channel DRX800 spectrometer at the standard temperature of 298 K and were referenced to the internal standard 3-Trimethyl-2,2,3,3-tetradeuteropropionate-sodium salt (TSP). […] For protein ligand 1D STD NMR measurements spectra were recorded with 1 mM ligand SSR128129E (100 mM DMSO stock solution) and […] protein with weak 2s RF irradiation on separated protein methyl resonances. […]"}, "[1]": {"target": "T1, FGFR1-ECD (FGFR1^∂123/Fc) (Homo sapiens, UniProt P11362)", "T1 construct": "FGFR1-ECD, consisting of the three Ig-like domains D1-3, coupled to a Fc-fragment (FGFR1^∂123/Fc)", "T1 sequence (P11362 22-376 limits assumed)": "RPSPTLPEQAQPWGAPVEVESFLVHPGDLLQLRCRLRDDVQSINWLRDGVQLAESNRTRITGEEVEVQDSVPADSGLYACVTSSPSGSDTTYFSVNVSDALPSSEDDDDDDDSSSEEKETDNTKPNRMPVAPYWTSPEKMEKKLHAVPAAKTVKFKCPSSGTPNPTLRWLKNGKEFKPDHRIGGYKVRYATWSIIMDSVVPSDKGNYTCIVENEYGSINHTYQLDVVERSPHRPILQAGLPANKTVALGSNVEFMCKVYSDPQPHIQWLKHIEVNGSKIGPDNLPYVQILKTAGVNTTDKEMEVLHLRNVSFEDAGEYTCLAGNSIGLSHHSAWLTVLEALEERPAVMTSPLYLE", "experiment": "scintillation proximity binding assay (SPA), 125I-FGF2 to FGFR1-ECD/Fc", "excerpt": "The objective of this study was to develop low molecular weight chemical compounds that bind to the FGFR extracellular domain (ECD) and inhibit FGFR signaling. Given that it is challenging to envisage how a small compound could interact with a much larger polypeptide (i.e. FGF) via simple steric hindrance for the orthosteric site, multiple ligand binding assay formats were utilized to determine whether any identified compounds were acting orthosterically of via an allosteric mechanism. We initially developed a high-throughput scintillation proximity binding assay (SPA) to identify compounds that inhibit the binding of ^125I-FGF2 to FGFR1-ECD, consisting of the three Ig-like domains D1-3, coupled to a Fc-fragment (FGFR1^∂123/Fc)."}, "[2]": {"target": "T2, ECD of FGFR1 (FGFR1^∂123) (Homo sapiens, UniProt P11362)", "T2 construct": "(ECD; amino acids: 39-358) of the human FGFR1 gene (P11362); His-tag followed by TEV protease cleavage site (N); made in house; host or cells: E. coli BL21(DE3)", "T2 sequence (P11362 39-358)": "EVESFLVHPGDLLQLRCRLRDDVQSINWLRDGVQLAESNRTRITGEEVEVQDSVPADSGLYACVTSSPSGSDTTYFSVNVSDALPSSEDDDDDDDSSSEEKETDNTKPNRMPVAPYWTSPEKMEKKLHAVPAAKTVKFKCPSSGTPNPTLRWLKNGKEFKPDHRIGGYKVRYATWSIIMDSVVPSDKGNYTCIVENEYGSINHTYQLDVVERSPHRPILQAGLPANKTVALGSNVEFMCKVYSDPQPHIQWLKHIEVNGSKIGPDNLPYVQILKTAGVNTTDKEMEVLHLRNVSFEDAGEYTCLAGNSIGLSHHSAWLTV", "experiment": "STD-NMR / 1D-NMR binding assay, FGFR1 ECD", "experimental": "as §1, §2"}, "HUVEC": {"tested_on": "HUVEC", "experiment": "HUVEC proliferation", "format": "cell-based, human", "settings": "FGFR1β3c-driven; ATP content after 3 days", "experimental": "Confluent HUVEC cells are harvested and 5 10^4 cells in 100 μl RPMI 1640 (Invitrogen, 32404-014) with 0.5% FCS (Hyclone, SH30070.03), 2 mM glutamine, MEM non-essential amino-acid 1× (Gibco, 11140-035), MEM sodium pyruvate 1× (Gibco, 11360-039) are seeded per well in 96-well collagen 1-coated plates (Beckton Dickinson, 354650) overnight. Then, medium is removed and replace by 50 μl of medium that contains 2×FGF2 (R&D, 234-FSE-025), FGF4 (R&D, 235-F4-025) or FGF-19 (in house produced) and 50 μl of 2×SSR (200 or 600 nM). Cells were incubated in CO2 chamber at 37° C. for 3 days and proliferation is evaluated by quantifying ATP content with 100 μl of “Cell Titer Glo Luminescent cell viability” kit (Promega, G7571)."}},
  "data": [
    {"molecule": "COc1c(C)c(C(=O)c2ccc(N)c(C(=O)[O-])c2)n2ccccc12.[Na+]", "note": "[SSR]", "values": [
      {"measurement": "binding to FGF2", "setting": "FGF2", "result": "failed to bind"},
      {"measurement": "inhibition of ^125I-FGF2 binding to FGFR1-ECD", "setting": "[1]", "result": "inhibited ^125I-FGF2 binding"},
      {"measurement": "binding to ECD of FGFR1", "setting": "[2]; STD-NMR, confirmed by 1D-NMR peak broadening", "result": "bound"},
      {"measurement": "STD-NMR signal of SSR to the FGFR with heparin analogue", "setting": "[2]; presence or absence of sucrose octasulphate (SOS)", "result": "comparable signal"},
      {"measurement": "FGF2-induced HUVEC proliferation", "setting": "HUVEC", "result": "able to inhibit FGF2-induced HUVEC proliferation"}
    ]}
  ]
}
